Source: article PMC11653428, “5‐methyl‐2‐carboxamidepyrrole‐based novel dual mPGES‐1/sEH inhibitors as promising anticancer candidates” (Archiv Der Pharmazie, 2024)
Where two headings read alike, the source gives them in different places.

Experiments:
mPGES-1 = target: T1, mPGES-1 (Homo sapiens, UniProt O14684); assay: Cell-free mPGES-1 activity assay (microsomes of IL-1β-stimulated A549 cells, PGE2 formation by RP-HPLC); assay type: biochemical; settings: for remaining activity at 10 µM / Residual activity of mPGES-1, mean ± SD (%): compound at 10 μM, percentage of vehicle control (DMSO) = 100%, n = 3; for remaining activity at 10 µM: read-out: Residual activity of mPGES-1, mean ± SD (%); for IC50: cell-free, A549 microsomes, read-out: IC50 (µM), mean ± SD for mPGES-1; for Residual activity of mPGES-1, mean ± SD (%): 10 µM
T1 construct: endogenous in cells; host or cells: A549 cells stimulated with IL-1β; microsomal fraction
T1 sequence (O14684 1-152): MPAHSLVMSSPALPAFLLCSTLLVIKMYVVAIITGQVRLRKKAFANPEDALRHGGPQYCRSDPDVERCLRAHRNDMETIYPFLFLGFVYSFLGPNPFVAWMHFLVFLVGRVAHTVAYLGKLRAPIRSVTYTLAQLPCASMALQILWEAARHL
Protocol: Compounds 1a–f and 2a–d were submitted to a cell‐free assay mPGES‐1^[ [52] ^] to validate the inhibitory activity predicted in silico.
Microsomes of A549 cells containing mPGES‐1 were used as enzyme sources. In brief, A549 cells were stimulated with interleukin‐1β (IL‐1β) (2 ng/mL) for 48 h, harvested, and sonicated. The lysate was first centrifugated at 10,000g (10 min), and then at 174,000g for (1 h) at 4°C. The pellet (microsomal fraction) was resuspended in 1 ml homogenization buffer (0.1 M potassium phosphate buffer, pH = 7.4, 1 mM phenylmethanesulfonyl fluoride, 60 µg/mL soybean trypsin inhibitor, 1 µg/mL leupeptin, 2.5 mM GSH, and 250 mM sucrose), the total protein concentration was determined, and microsomes were diluted in potassium phosphate buffer (0.1 M, pH 7.4) containing GSH (2.5 mM) and seeded in a 96‐well plate. […] After 1 min, the addition of 100 µL of a stop solution (40 mM FeCl3, 80 mM citric acid, and 10 µM 11β‐PGE2) blocked the reaction. PGE2 and 11β‐PGE2 were extracted by solid‐phase extraction, and PGE2 formation was quantified by RP‐HPLC.^[ [52] ^]
mPGES-1 activity assay: Microsomes from A549 cells, which contain the enzyme mPGES-1, were used in an experiment to study the production of PGE2. The A549 cells were first stimulated with IL-1β for 48 hours, then harvested and broken down by sonication. The resulting cell lysate was subjected to two rounds of centrifugation to isolate the microsomal fraction. The microsomes were diluted and placed in a 96-well plate, where they were preincubated with various compounds or a control solution. The production of PGE2 was triggered by adding a substrate, and the reaction was stopped after one minute. PGE2 was then extracted and quantified using HPLC.

human recombinant sEH = target: T2, human recombinant sEH (Homo sapiens, UniProt P34913); assay: Cell-free sEH activity assay (PHOME fluorescence, inhibitor screening kit); assay type: biochemical; settings: for remaining activity at 10 µM: compound at 10 μM, percentage of vehicle control (DMSO) = 100%, n = 3, read-out: Residual activity of sEH, mean ± SD (%); for IC50: threefold dilutions from 30,000 to 1.52 nM, read-out: IC50 (µM), mean ± SD for sEH
T2 construct: purchased 10011671
T2 sequence (P34913 1-555): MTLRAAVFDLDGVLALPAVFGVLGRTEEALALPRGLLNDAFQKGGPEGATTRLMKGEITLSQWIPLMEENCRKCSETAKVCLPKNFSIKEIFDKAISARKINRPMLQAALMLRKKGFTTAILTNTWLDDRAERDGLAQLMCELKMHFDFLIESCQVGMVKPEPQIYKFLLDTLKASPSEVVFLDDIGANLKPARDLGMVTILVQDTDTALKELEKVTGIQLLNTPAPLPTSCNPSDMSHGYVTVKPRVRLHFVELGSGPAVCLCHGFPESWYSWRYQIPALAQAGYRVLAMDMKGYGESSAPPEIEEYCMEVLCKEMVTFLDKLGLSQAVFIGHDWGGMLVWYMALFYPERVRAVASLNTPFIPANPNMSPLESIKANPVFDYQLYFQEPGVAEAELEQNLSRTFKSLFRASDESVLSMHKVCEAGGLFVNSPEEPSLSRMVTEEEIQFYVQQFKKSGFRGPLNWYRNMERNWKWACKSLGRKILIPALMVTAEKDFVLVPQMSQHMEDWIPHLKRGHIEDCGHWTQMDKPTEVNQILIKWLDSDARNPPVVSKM
Text: When the epoxide moiety of PHOME is hydrolyzed by the epoxide hydrolase, an intramolecular cyclization occurs, which results in the release of a cyanohydrin under basic conditions. The cyanohydrin quickly decomposes into cyanide ion and the highly fluorescent 6‐Methoxy‐2‐naphthaldehyde, which can be analyzed. The signal was detected (λex 330 nm, λem 465 nm) on an EnSpire™ Multimode Plate Reader (PerkinElmer).
The reaction was initiated by adding a small amount of a no-fluorescent substrate called PHOME. When sEH hydrolyzes PHOME, it triggers a chemical reaction that ultimately produces a fluorescent compound. The fluorescence emitted by this compound was measured using a plate reader, which allowed the researchers to analyze the enzyme activity and determine the effectiveness of the test compounds in inhibiting sEH.

HaCaT cells = assay: Cell survival index (MTT assay and cell count) in HaCaT keratinocytes; assay type: cell-based, human; settings: 48 h of incubation, cell survival index, n = 24, healthy control cells, read-out: IC50 ± SD (µM) HaCat
Protocol: HaCaT cells, human immortalized keratinocytes (kindly provided by Dr. Valeria Cicatiello at Italian National Research Council (CNR), Institute of Genetics and Biophysics), were maintained in a humidified 5% CO2 atmosphere at 37°C and grown in DMEM (Invitrogen) supplemented with 10% fetal bovine serum (FBS, Cambrex), L‐glutamine (2 mM), penicillin (100 units/mL, Sigma‐Aldrich), and streptomycin (100 μg/mL). Cells were seeded at a density between 2 and 4 × 10^4 cells/cm^2 and cultured to about 80%–90% confluence.^[ [66] ^] HaCaT cells provide ideal in vitro cell systems to study biocompatibility and toxicological cellular responses.
(§1) Bioactivity and cell responses to in vitro treatment with 1f, 2b, 2c, and 2d compounds were investigated through the estimation of a “cell survival index,” arising from the combination of cell viability evaluation with cell counting. The cell survival index is calculated as the arithmetic mean between the percentage values derived from the 3‐(4,5‐dimethyl‐2‐thiazolyl) 2,5‐diphenyl‐2‐H‐tetrazolium bromide (MTT) assay and the automated cell count.^[ [67] ^] HCT‐116 and HaCaT were inoculated in 96‐microwell culture plates at a density of 10^4 cells/well and allowed to grow for 24 h. Subsequently, the culture medium was exchanged with fresh medium, and cells were exposed to different concentrations (0→50 µM) of compounds 1f, 2b−2d under investigation for an additional 48 h. After the treatments, the medium was removed, and the cells were incubated with 20 μL/well of an MTT solution (5 mg/mL MTT, Sigma) for 1 h in a humidified 5% CO2 incubator at 37°C. The incubation was stopped by removing the MTT solution and by adding 100 μL/well of DMSO to solubilize the obtained formazan. Finally, the absorbance was monitored at 550 nm using a microplate reader (iMark microplate reader, Bio‐Rad). Cell number was determined by TC20 automated cell counter (Bio‐Rad), which uses disposable slides, TC20 trypan blue dye (0.4% trypan blue dye w/v in 0.81% sodium chloride and 0.06% potassium phosphate dibasic solution), and a CCD camera to count cells based on the analyses of captured images. The medium was removed, and the cells were collected. Ten microliters of cell suspension, mixed with 0.4% trypan blue solution at a 1:1 ratio, were loaded into the chambers of disposable slides. The results are expressed in terms of total cell count (cell number/mL). […] Total counts and live/dead ratio from random samples for each cell line were subjected to comparisons with manual hemocytometers in control experiments. […] Concentration‐effect curves were obtained with nonlinear regression using GraphPad Prism 8.0 curve‐fitting software.^[ [67] ^]
(§2) Experiments on HTC-116 and HaCat cell lines: The bioactivity and cellular responses to treatment 2d were evaluated by calculating a "cell survival index." This index combines results from cell viability tests (using the MTT assay) and cell counting. HCT-116 and HaCaT cells were grown in 96-well plates for 24 hours, after which they were treated with various concentrations of the compounds for an additional 48 hours. After treatment, cell viability was assessed by incubating the cells with MTT solution, which results in the formation of formazan crystals. These crystals were dissolved in DMSO, and the absorbance was measured to determine cell viability.

HCT-116 cells = assay: Cell survival index (MTT assay and cell count) in HCT-116 CRC cells; assay type: cell-based, human; settings: 48 h of incubation, cell survival index, n = 24, read-out: IC50 ± SD (µM) HCT-116
Protocol: HCT‐116 cells (CCL‐247 ™), an epithelial‐like carcinoma cell line isolated from the colon of an adult with colon cancer, were purchased from ATCC and cultured in Roswell Park Memorial Institute (Invitrogen) supplemented with 10% fetal bovine serum (FBS, Cambrex), L‐glutamine (2 mM, Sigma), penicillin (100 units/mL, Sigma), and streptomycin (100 μg/mL, Sigma), and cultured in a humidified 5% carbon dioxide atmosphere at 37°C, according to ATCC recommendations.^[ [58] ^]
as §1, §2

mPGES-1 from A549 cells = tested on: mPGES-1 from A549 cells; parameters: method as in earlier work; settings: cited from earlier work
[1] = tested on: human recombinant mPGES-1; parameters: method as in earlier work; settings: cited from earlier work

Row | Structure (SMILES) | remaining activity at 10 µM (mPGES-1) [%] | remaining activity at 10 µM (human recombinant sEH) [%] | IC50 (HaCaT cells; Homo sapiens, HaCaT) [µM] | IC50 (human recombinant sEH) [µM] | IC50 (HCT-116 cells; Homo sapiens, HCT-116) [µM] | other results
1 | Cc1[nH]c(C(=O)Nc2cc(Cl)cc(Cl)c2)cc1C(=O)c1ccccc1 [Compound 1e, 4‐benzoyl‐N‐(3,5‐dichlorophenyl)‐5‐methyl‐1H‐pyrrole‐2‐carboxamide] | 73.4 ± 5.2 | 86.9 ± 4.8 | – | – | – | –
2 | Cc1[nH]c(C(=O)Nc2ccc(C(C)O)cc2)cc1C(=O)c1ccccc1 (racemic) [Compound 1d, (±) 4‐Benzoyl‐N‐[4‐(1‐hydroxyethyl)phenyl]‐5‐methyl‐1H‐pyrrole‐2‐carboxamide] | – | 93.4 ± 0.6 | – | – | – | –
3 | Cc1ccc(NC(=O)c2cc(C(=O)c3ccc4ccccc4c3)c(C)[nH]2)cc1O [Compound 2b, 4‐(2‐Naphthoyl)‐N‐(3‐hydroxy‐4‐methylphenyl)‐5‐methyl‐1H‐pyrrole‐2‐carboxamide] | 17.6 ± 0.3 | 21.7 ± 4.2 | 31 ± 4 | 1.5 ± 0.2 | 42 ± 1 | IC50 (mPGES-1): 3.3 ± 0.5 µM
4 | N.N.[Cl][Pt][Cl] [Cisplatin, reference compound] | – | – | – | – | – | IC50 (HaCaT cells): 20 ± 3 µM; IC50 (HCT-116 cells): 9 ± 3 µM
5 | Cc1[nH]c(C(=O)Nc2cc(N)cc(C(F)(F)F)c2)cc1C(=O)c1ccccc1 [Compound 1f, N‐[3‐Amino‐5‐(trifluoromethyl)phenyl]‐4‐benzoyl‐5‐methyl‐1H‐pyrrole‐2‐carboxamide] | ~50 | 36.1 ± 5.1 | 37 ± 3 | 5 ± 0.9 | 25 ± 2 | Residual activity of mPGES-1, mean ± SD (%) (mPGES-1): 47.6 ±4.4%
6 | Cc1[nH]c(C(=O)Nc2ccc(Cl)c(CO)c2)cc1C(=O)c1ccc2ccccc2c1 [Compound 2d, 4‐(2‐Naphthoyl)‐N‐[4‐chloro‐3‐(hydroxymethyl)phenyl]‐5‐methyl‐1H‐pyrrole‐2‐carboxamide] | 21.5 ± 2.9 | 41.6 ± 3.1 | 22 ± 2 | 7.6 ± 1 | 39 ± 2 | IC50 (mPGES-1): 4.5 ± 1.3 µM
7 | CCCCCCCCCCCC(=O)c1c(C)c(CCC(=O)O)n(C)c1C [I, 3-(4-dodecanoyl-1,3,5-trimethyl-1H-pyrrol-2-yl)propanoic acid] | – | – | – | – | – | Inhibition of mPGES-1 from A549 cells at 3.3 μM [%] (mPGES-1 from A549 cells): 74±8 (n=5) %; Inhibition of human recombinant mPGES-1 at 1μM [%] [1]: 54±8 (n=7) %
8 | CCc1ccccc1NC(=O)c1cc(C(=O)c2ccc3ccccc3c2)c(C)[nH]1 [Compound 2a, 4‐(2‐Naphthoyl)‐N‐(2‐ethylphenyl)‐5‐methyl‐1H‐pyrrole‐2‐carboxamide] | 83.4 ± 4 | 74.3 ± 3.6 | – | – | – | –
9 | Cc1[nH]c(C(=O)Nc2ccc3ccccc3n2)cc1C(=O)c1ccccc1 [Compound 1b, 4‐benzoyl‐5‐methyl‐N‐(quinolin‐2‐yl)‐1H‐pyrrole‐2‐carboxamide] | ~55 | 71.8 ± 4.7 | – | – | – | Residual activity of mPGES-1, mean ± SD (%) (mPGES-1): 55.6 ± 2.9%
10 | Cc1ccc(NC(=O)c2cc(C(=O)c3ccccc3)c(C)[nH]2)cc1C [Compound 1c, 4‐Benzoyl‐N‐(3,4‐dimethylphenyl)‐5‐methyl‐1H‐pyrrole‐2‐carboxamide] | 65.5 ± 3.7 | 47.7 ± 2.9 | – | – | – | –
11 | COc1ccc(NC(=O)c2cc(C(=O)c3ccc4ccccc4c3)c(C)[nH]2)cc1O [Compound 2c, 4‐(2‐Naphthoyl)‐N‐(3‐hydroxy‐4‐methoxyphenyl)‐5‐methyl‐1H‐pyrrole‐2‐carboxamide] | 30.4 ± 1.9 | 47.2 ± 2.5 | 43 ± 2 | 6.3 ± 1.1 | 44 ± 3 | IC50 (mPGES-1): 4 ± 1.1 µM
